Key:
[1] = test system: PTEN-deficient glioblastomas and metastatic renal cell carcinomas; settings: patients with PTEN-deficient glioblastomas and metastatic renal cell carcinomas; cited from earlier work
[2] = test system: pre-existing GI polyps in Lkb1^+/− mice
Method: Mouse Colony Maintenance, Treatment Regimen and Polyp Measurement. Lkb1^+/+ and Lkb1^+/− mice, maintained on an FVB/N genetic background, were monitored for the development of gastrointestinal polyps. Mice with clinical signs of disease were euthanized and necropsied. The groups were vehicle treated or RAPA treated mice. […] Polyps were scored and total polyp burden was measured).
After two months of treatment, polyp size and number in each mouse were quantitated.

Compound: CO[C@H]1C[C@@H]2CC[C@@H](C)[C@@](O)(O2)C(=O)C(=O)N2CCCC[C@H]2C(=O)O[C@H]([C@H](C)C[C@@H]2CC[C@@H](OC(=O)C(C)(CO)CO)[C@H](OC)C2)CC(=O)[C@H](C)/C=C(\C)[C@@H](O)[C@@H](OC)C(=O)[C@H](C)C[C@H](C)/C=C/C=C/C=C/1C [Temsirolimus, temsirolimus]
- clinical outcome [1]: palliative success

Compound: CO[C@H]1C[C@@H]2CC[C@@H](C)[C@@](O)(O2)C(=O)C(=O)N2CCCC[C@H]2C(=O)O[C@H]([C@H](C)C[C@@H]2CC[C@@H](O)[C@H](OC)C2)CC(=O)[C@H](C)/C=C(\C)[C@@H](O)[C@@H](OC)C(=O)[C@H](C)C[C@H](C)/C=C/C=C/C=C/1C [rapamycin]
- reduction in the overall mass of polyps ([2]; Lkb1+/− mice treated vs untreated with rapamycin, two months): 80%
- mean polyp burden (total polyp burden) ([2]; Lkb1+/− mice, 10 mg/kg rapamycin i.p., two months, n=10, VEH 9.6±5.5, p=0.00026): 2.0±1.2
- mean polyp size ([2]; Lkb1+/− mice, n=10, VEH 4.4±0.8, p<0.0001): 1.2±0.9
- mean polyp number ([2]; Lkb1+/− mice, visible polyps between 1 and 5 mm scored, n=10, VEH 5.3±1.8, p=0.00022): 2.8±1.4
